Laboratory results published in paper PMC11236999, “Antagonism of propofol anesthesia by alkyl-fluorobenzene derivatives” (Scientific Reports, 2024).
“Also recorded” adds a separate entry of the source.

Legend:
5 dpf larval zebrafish [1] = assay: Zebrafish behavioral model of anesthesia, spontaneous movement (SM); assay type: in vivo
Experimental: (§1) Figure 2 Screening of PFAL compounds for antagonism of anesthesia. PFAL compounds were screened in 5 dpf zebrafish for their ability to antagonize the anesthetic effects of propofol (panels a, b, c and d) as well as sevoflurane and isoflurane (panels e and f). Each dot represents the data collected from one fish. Spontaneous movement (SM) is the distance of spontaneous swimming in a 4 min period, and elicited movement (EM) is distance moved in 1 s after exposure to a tap stimulus. Both measures were scaled to same-day DMSO controls. […] Mean and 95% CI are shown for each data set. Statistical comparison with both DMSO (D) only (black asterisks) and anesthetic control (Ctrl, gray asterisks) groups are shown. Note that each DMSO comparison is to the DMSO only control (sample on the furthest left of each graph, and the anesthetic control comparisons are made within each anesthetic grouping as indicated by the bars along the x-axis of each graph. ns: P > 0.05, *: P ≤ 0.05, **: P ≤ 0.01, ***: P ≤ 0.001, ****: P ≤ 0.0001).
(§2) Behavioral experiments (screening, EC50 curves) were performed as previously reported. Antagonism after induction was conducted in a similar manner with different timepoints and solution changes as indicated. The DanioVision Observation Chamber (Noldus) and Ethovision XT16 software were used to track and record (1280 × 960 resolution at 25 frames per second) larval zebrafish (5 dpf) movement in glass 96-well plates (Zissner North America 3,600,500). All experiments were performed at 28 °C with the DanioVision Temperature Control Unit. Zebrafish were allowed to equilibrate in E3 and 2% DMSO (with or without drug) for 10 min before being placed in the observation chamber for 22 min of recording. Two different endpoints were used to assess depth of anesthesia: spontaneous movement (SM) and elicited movement (EM). In these measures, fish movement was considered to be non-anesthetized. During each observation, fish were given time to acclimate to the chamber, and minutes 15–19 of the recording were used for analysis of SM. An EM response using the Daniovision tapping device (8 out of 8 intensity, movement response measured for 1 s after stimulus) was also measured at the end of the SM observation period. All recordings were scrutinized by a blind observer for technical errors in tracking to ensure accuracy of zebrafish detection and inaccurate tracking was excluded from further analysis. Toxicity was measured in separate experiments by exposing larvae to compounds for 30 min, transferring to fresh E3, and then observing mortality after exposure. […]

zebrafish = tested on: zebrafish; design: method as in PMID 33355437; details: cited from earlier work
[2] = tested on: propofol-sensitive GABAAR; design: method as in PMID 25799399; details: cited from earlier work
tadpoles = tested on: tadpoles; design: method as in PMID 25799399; details: cited from earlier work
5 dpf larval zebrafish [3] = assay: Zebrafish behavioral model of anesthesia, elicited movement (EM, tap stimulus); assay type: in vivo
Experimental: as §1, §2

[4] = target: T1, horse spleen apoferritin (HSAF) (Equus caballus, UniProt P02791); assay: 1-Aminoanthracene (1-AMA) competition fluorescence assay; assay type: binding
T1 construct: model protein HSAF (horse spleen apoferritin); purchased Sigma-Aldrich; host or cells: horse spleen (tissue-derived)
T1 sequence (P02791 2-175 limits assumed): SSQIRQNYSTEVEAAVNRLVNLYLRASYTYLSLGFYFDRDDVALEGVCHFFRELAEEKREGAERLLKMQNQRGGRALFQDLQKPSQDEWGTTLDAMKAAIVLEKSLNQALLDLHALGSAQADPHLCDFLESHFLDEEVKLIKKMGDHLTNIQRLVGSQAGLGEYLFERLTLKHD

[5] = target: T1, horse spleen apoferritin (HSAF); design: method as in doi:10.1055/s-0040-1707287; details: cited from earlier work
5 dpf zebrafish = assay: Antagonism of anesthesia after induction (sequential addition); assay type: in vivo; details: propofol 3 μM for 10 min, then propofol 3 μM plus 30 μM compound
Experimental: In the above studies, the anesthetic and PFAL compounds were co-administered to the fish simultaneously.
Figure 5 Further Characterization of Propofol Antagonism with Compounds 9 and 10. a and b 5 dpf zebrafish (n = 36) were first anesthetized with 3 μM propofol and then 30 μM of either compound 9 or 10 was added. Between minutes 5 and 10 there is a small gap in the data during which the propofol solution was removed and a solution containing propofol and PFAL compound was added. […] The mean and 95% CI is shown for each data point in all panels.
Behavioral experiments (screening, EC50 curves) were performed as previously reported. Antagonism after induction was conducted in a similar manner with different timepoints and solution changes as indicated. The DanioVision Observation Chamber (Noldus) and Ethovision XT16 software were used to track and record (1280 × 960 resolution at 25 frames per second) larval zebrafish (5 dpf) movement in glass 96-well plates (Zissner North America 3,600,500). […] An EM response using the Daniovision tapping device (8 out of 8 intensity, movement response measured for 1 s after stimulus) was also measured at the end of the SM observation period. […] Toxicity was measured in separate experiments by exposing larvae to compounds for 30 min, transferring to fresh E3, and then observing mortality after exposure.

[6] = PFAL compound alone at 10 and 30 μM, versus DMSO control

CC(C)c1cccc(C(C)C)c1F [Compound 9, 1,3-diisopropyl-2-fluorobenzene]
Antagonism of propofol via SM (5 dpf larval zebrafish [1]; 30 μM PFAL compound co-administered with propofol (0.3, 1, 5 μM), screen): showed antagonism of propofol; also recorded: statistically significant antagonism | Antagonism of propofol via SM at 5 μM propofol (5 dpf larval zebrafish [1]; 30 μM PFAL compound, propofol 5 μM): antagonized propofol | IC50 (5 dpf larval zebrafish [1]; Danio rerio, 120 h, 5 dpf zebrafish exposed to 3 μM propofol, Fig. 5d, read-out: IC50 (antagonism of propofol)): 37.5 µM | Spontaneous movement (SM), compound alone (5 dpf larval zebrafish [1]; [6]): increased SM | Increase of propofol EC50 versus propofol alone, spontaneous movement (5 dpf larval zebrafish [1]; propofol plus 30 μM compound, Fig. 4a): ~ tenfold | Antagonism of propofol in zebrafish (zebrafish): antagonize propofol | Modulation of a propofol-sensitive GABAAR [2]: no significant modulation | Antagonism of propofol in tadpoles (tadpoles): antagonize propofol | Elicited movement (EM), compound alone (5 dpf larval zebrafish [3]; [6]): increased EM | Schild-type analysis with EM (5 dpf larval zebrafish [3]; propofol EC50 curves (EM) at various concentrations of the compound, Fig. S6): no such relationship of antagonism was observed | Inhibition of 1-AMA binding to HSAF ([4]; 15 μM 1-AMA, 15 μM HSAF dimer, ligand 1 to 125 μM): most potent inhibitors of 1-AMA binding | Shape of IC50 curve for 1-AMA displacement ([4]; Fig. 6b): incomplete inhibition of 1-AMA binding | Binding to the anesthetic site of HSAF [5]: binds to this site | Reversal of established propofol immobility (5 dpf zebrafish): rapid reversal of propofol immobility
